This assay deals with P388 leukemia ip, CD2F1 mice, survival T/C. The assay can be described thus: NCI In Vivo Anticancer Drug Screen. Data for tumor model P388 Leukemia (intraperitoneal) in CD2F1 (CDF1) mice. Particulars: endpoint: median survival time, higher = longer survival. In a few lines:
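Mice carrying the transplanted tumor received test compound or vehicle. Survival was recorded in each group, and the value is the treated-group measurement divided by that of the vehicle-treated control group.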

[1] abbreviates: dose: 50.0 mg/kg/injection, schedule: Q01DX009 (ip), vehicle: Klucel (hydroxypropylcellulose) (HPC).
Where [2] appears, read: dose: 100.0 mg/kg/injection, schedule: Q01DX009 (ip), vehicle: Klucel (hydroxypropylcellulose) (HPC).
Setting [3] is: dose: 200.0 mg/kg/injection, schedule: Q01DX009 (ip), vehicle: Klucel (hydroxypropylcellulose) (HPC).
[4] abbreviates: dose: 400.0 mg/kg/injection, schedule: Q01DX009 (ip), vehicle: Klucel (hydroxypropylcellulose) (HPC).
Setting [5] is: dose: 50.0 mg/kg/injection, schedule: Q01DX005 (ip), vehicle: Klucel (hydroxypropylcellulose) (HPC).
The mark [6] stands for this setting: dose: 100.0 mg/kg/injection, schedule: Q01DX005 (ip), vehicle: Klucel (hydroxypropylcellulose) (HPC).
The mark [7] stands for this setting: dose: 100.0 mg/kg/injection, schedule: Q01DX001 (ip), vehicle: saline with Tween-80.
[8] abbreviates: dose: 200.0 mg/kg/injection, schedule: Q01DX001 (ip), vehicle: saline with Tween-80.
[9] abbreviates: dose: 50.0 mg/kg/injection, schedule: Q01DX005 (ip), vehicle: saline with Tween-80.
Setting [10] is: dose: 100.0 mg/kg/injection, schedule: Q01DX005 (ip), vehicle: saline with Tween-80.
Setting [11] is: dose: 100.0 mg/kg/injection, schedule: Q01DX009 (ip), vehicle: saline with Tween-80.
Where [12] appears, read: dose: 200.0 mg/kg/injection, schedule: Q01DX009 (ip), vehicle: saline with Tween-80.
Setting [13] is: dose: 400.0 mg/kg/injection, schedule: Q01DX009 (ip), vehicle: saline with Tween-80.

Where “and” joins values, the source holds several entries; their conditions need not be identical. Equal entries are not always repeated. Inconclusive results and toxic doses are left out.

Here are results for 21 compounds from PubChem BioAssay AID330 (DTP/NCI, 2004).

In the case of `Cn1c(=O)c2nc(-c3cccc([N+](=O)[O-])c3)cnc2n(C)c1=O`, the T/C by setting is: (dose: 100.0 mg/kg/injection, schedule: Q04DX002 (ip), vehicle: Klucel (hydroxypropylcellulose) (HPC)) 89 % of control; (dose: 200.0 mg/kg/injection, schedule: Q04DX002 (ip), vehicle: Klucel (hydroxypropylcellulose) (HPC)) 95 % of control; (dose: 400.0 mg/kg/injection, schedule: Q04DX002 (ip), vehicle: Klucel (hydroxypropylcellulose) (HPC)) 100 % of control.

Turning to `OCC1OC(n2cnc3c(NO)ncnc32)C(O)C1O` (stereo unspecified), the T/C by setting is: (dose: 12.5 mg/kg/injection, schedule: Q01DX009 (ip), vehicle: Klucel (hydroxypropylcellulose) (HPC)) 102 % of control; (dose: 25.0 mg/kg/injection, schedule: Q01DX009 (ip), vehicle: Klucel (hydroxypropylcellulose) (HPC)) 100 % of control; under setting [1], 99 % of control and 109 % of control and 110 % of control; under setting [2], 100 % of control and 107 % of control and 113 % of control; under setting [3], 103 % of control and 113 % of control and 97 % of control; under setting [4], 102 % of control and 119 % of control.

In the case of `CC1=CC(C)(C)Nc2ccccc21`, the T/C runs as follows: under setting [2], 108 % of control; under setting [3], 114 % of control; under setting [4], 110 % of control.

As for `O=c1oc(-c2ccc([N+](=O)[O-])cc2Cl)nc2ccccc12`, the T/C reads like this: (dose: 50.0 mg/kg/injection, schedule: Q01DX009 (ip), vehicle: saline) 106 % of control; (dose: 100.0 mg/kg/injection, schedule: Q01DX009 (ip), vehicle: saline) 105 % of control; (dose: 200.0 mg/kg/injection, schedule: Q01DX009 (ip), vehicle: saline) 106 % of control.

As to `CC(/C=C/c1ccco1)=N\O`, the T/C by setting is: (dose: 12.5 mg/kg/injection, schedule: Q01DX009 (ip), vehicle: other) 104 % of control; (dose: 25.0 mg/kg/injection, schedule: Q01DX009 (ip), vehicle: other) 100 % of control; (dose: 50.0 mg/kg/injection, schedule: Q01DX009 (ip), vehicle: other) 91 % of control.

With `O=C(COc1cccc2c(=O)cc(-c3ccccc3)oc12)OCCN1CCOCC1`, the T/C was 98 % of control under setting [5]; 104 % of control under setting [6]; 91 % of control (dose: 200.0 mg/kg/injection, schedule: Q01DX005 (ip), vehicle: Klucel (hydroxypropylcellulose) (HPC)).

Take `CN(C)/N=C/c1ccc(O)cc1`: the T/C under setting [1] is 118 % of control; the T/C under setting [2] was 100 % of control and 101 % of control; the T/C under setting [3] is 102 % of control and 114 % of control.

Consider `Cn1cc(/C=C/[N+](=O)[O-])c2ccc(OCc3ccccc3)cc21`, for which the T/C was 105 % of control (dose: 100.0 mg/kg/injection, schedule: Q04DX003 (ip), vehicle: Klucel (hydroxypropylcellulose) (HPC)); 95 % of control (dose: 200.0 mg/kg/injection, schedule: Q04DX003 (ip), vehicle: Klucel (hydroxypropylcellulose) (HPC)); 97 % of control (dose: 400.0 mg/kg/injection, schedule: Q04DX003 (ip), vehicle: Klucel (hydroxypropylcellulose) (HPC)).

In the case of `CCOC(=O)c1cc2ccccc2c(-c2ccccc2)c1C(=O)OCC`, the T/C runs as follows: under setting [7], 97 % of control; under setting [8], 96 % of control; (dose: 400.0 mg/kg/injection, schedule: Q01DX001 (ip), vehicle: saline with Tween-80) 90 % of control.

In the case of `C/C(=N\O)c1cc(Br)cc([N+](=O)[O-])c1O`, the T/C is 100 % of control under setting [5] and 94 % of control under setting [6].

For `CN(C)C1=C(N(C)C)C1N(C)C`, the T/C was 100 % of control (dose: 10.0 mg/kg/injection, schedule: Q04DX003 (ip), vehicle: saline); 97 % of control (dose: 20.0 mg/kg/injection, schedule: Q04DX003 (ip), vehicle: saline); 101 % of control (dose: 40.0 mg/kg/injection, schedule: Q04DX003 (ip), vehicle: saline).

For `CC(=O)N1c2ccccc2Oc2ccc3ccccc3c21`, the T/C by setting is: under setting [9], 104 % of control; under setting [10], 100 % of control; (dose: 200.0 mg/kg/injection, schedule: Q01DX005 (ip), vehicle: saline with Tween-80) 97 % of control.

Take `COC(=O)CC(OC)OC`: the T/C under setting [11] was 100 % of control; the T/C (dose: 100.0 mg/kg/injection, schedule: Q04DX003 (ip), vehicle: saline) is 91 % of control; the T/C under setting [12] is 113 % of control; the T/C (dose: 200.0 mg/kg/injection, schedule: Q04DX003 (ip), vehicle: saline) was 91 % of control; the T/C under setting [13] is 113 % of control; the T/C (dose: 400.0 mg/kg/injection, schedule: Q04DX003 (ip), vehicle: saline) is 95 % of control.

Turning to `S=C(NNc1nnc(-c2ccccc2)c(-c2ccccc2)n1)NC1CCCCC1`, the T/C is, setting by setting: under setting [9], 93 % of control; under setting [10], 88 % of control.

For `NCCC(=O)OC1CCCc2c(O)c3c(c(O)c21)C(=O)c1ccccc1C3=O` (stereo unspecified), the T/C (dose: 3.12 mg/kg/injection, schedule: Q01DX009 (ip), vehicle: water) is 103 % of control; the T/C (dose: 6.25 mg/kg/injection, schedule: Q01DX009 (ip), vehicle: water) was 94 % of control; the T/C (dose: 12.5 mg/kg/injection, schedule: Q01DX009 (ip), vehicle: water) was 100 % of control; the T/C (dose: 25.0 mg/kg/injection, schedule: Q01DX009 (ip), vehicle: water) was 93 % of control; the T/C (dose: 50.0 mg/kg/injection, schedule: Q01DX009 (ip), vehicle: water) was 93 % of control.

For the compound `CCCc1nc2c(=O)[nH]cnc2o1`, the T/C (dose: 50.0 mg/kg/injection, schedule: Q01DX001 (ip), vehicle: saline with Tween-80) was 100 % of control; the T/C under setting [7] was 100 % of control; the T/C under setting [8] is 100 % of control.

For `COc1cccc(/C=N\O)c1`, the T/C by setting is: under setting [11], 104 % of control; under setting [12], 100 % of control; under setting [13], 104 % of control.

Regarding `Cc1ccc2c3nc4ccccc4c-3csc2c1`, the T/C is, setting by setting: (dose: 18.0 mg/kg/injection, schedule: Q01DX009 (ip), vehicle: saline) 104 % of control; (dose: 27.5 mg/kg/injection, schedule: Q01DX009 (ip), vehicle: saline) 89 % of control.

Take `COC(=O)c1nnn(-c2cc(Cl)ccc2Cl)c1C(=O)c1ccc(OC)cc1`: the T/C was 95 % of control (dose: 60.0 mg/kg/injection, schedule: Q01DX005 (ip), vehicle: saline with Tween-80); 100 % of control (dose: 120.0 mg/kg/injection, schedule: Q01DX005 (ip), vehicle: saline with Tween-80); 89 % of control (dose: 240.0 mg/kg/injection, schedule: Q01DX005 (ip), vehicle: saline with Tween-80).

Turning to `O=NN(CCCl)C(=O)NCCO`, the T/C is 96 % of control (dose: 0.78 mg/kg/injection, schedule: Q01DX005 (ip), vehicle: water); 104 % of control (dose: 3.12 mg/kg/injection, schedule: Q01DX005 (ip), vehicle: water); 250 % of control (dose: 3.13 mg/kg/injection, schedule: Q01DX005 (ip), vehicle: water); 116 % of control (dose: 12.5 mg/kg/injection, schedule: Q01DX005 (ip), vehicle: water); 150 % of control (dose: 25.0 mg/kg/injection, schedule: Q01DX005 (ip), vehicle: water); 218 % of control (dose: 50.0 mg/kg/injection, schedule: Q01DX005 (ip), vehicle: water).

Turning to `CN(C)CCCNc1nc(NCCCN(C)C)c2nc(-c3ccccc3)c(-c3ccccc3)nc2n1`, the T/C is, setting by setting: (dose: 12.5 mg/kg/injection, schedule: Q01DX005 (ip), vehicle: saline with Tween-80) 97 % of control; (dose: 25.0 mg/kg/injection, schedule: Q01DX005 (ip), vehicle: saline with Tween-80) 88 % of control; under setting [9], 88 % of control.
